Laboratory results reported in ChEMBL document CHEMBL1132239, “Tricyclic farnesyl protein transferase inhibitors: crystallographic and calorimetric studies of structure-activity relationships” (J Med Chem, 1999).
pIC50, pKd: −log10 of the molar value.

What was measured:
[1] = Dissociation constant of the Compound; format: physicochemical
[2] = target: Protein farnesyltransferase (Homo sapiens, UniProt P49354+P49356); assay: Inhibition of Farnesyl protein transferase; format: protein-complex assay

| SMILES | pKd [1] | pIC50 [2] |
| --- | --- | --- |
| O=C(Cc1cc[n+]([O-])cc1)N1CCN([C@@H]2c3ccc(Cl)cc3CCc3cc(Br)cnc32)CC1 | 7.49 |  |
| O=C(Cc1cc[n+]([O-])cc1)N1CCC(=C2c3ncc(Br)cc3CCc3cc(Cl)cc(Br)c32)CC1 | 8.29 | 8.41 |
| O=C(Cc1cc[n+]([O-])cc1)N1CCN([C@H]2c3ccc(Cl)cc3CCc3cc(Br)cnc32)CC1 | 7.68 |  |

Now from value to compound:

| pKd [1] | pIC50 [2] | SMILES |
| --- | --- | --- |
| 7.76 | 7.28 | O=C(Cc1cc[n+]([O-])cc1)N1CCC(=C2c3ccc(Cl)cc3CCc3cc(Br)cnc32)CC1 |
| 6.62 |  | O=C(Cc1cc[n+]([O-])cc1)N1CCC(=C2c3ccc(Cl)cc3CCc3cccnc32)CC1 |
